The values below come from BindingDB's records for doi:10.1124/mol.64.6.1283 (Barrow Neurological Institute, 2003).

The term Ki denotes a measure of affinity in units of concentration, obtained from inhibition or displacement. Read a high Ki as lower affinity.

Each structure is given as a SMILES string. A value given as a limit tells only on which side of the number the result lay.

The target of the assay is Neuronal acetylcholine receptor subunit alpha-4 (Homo sapiens, UniProt P43681).
Sequence of Neuronal acetylcholine receptor subunit alpha-4 (P43681 whole entry): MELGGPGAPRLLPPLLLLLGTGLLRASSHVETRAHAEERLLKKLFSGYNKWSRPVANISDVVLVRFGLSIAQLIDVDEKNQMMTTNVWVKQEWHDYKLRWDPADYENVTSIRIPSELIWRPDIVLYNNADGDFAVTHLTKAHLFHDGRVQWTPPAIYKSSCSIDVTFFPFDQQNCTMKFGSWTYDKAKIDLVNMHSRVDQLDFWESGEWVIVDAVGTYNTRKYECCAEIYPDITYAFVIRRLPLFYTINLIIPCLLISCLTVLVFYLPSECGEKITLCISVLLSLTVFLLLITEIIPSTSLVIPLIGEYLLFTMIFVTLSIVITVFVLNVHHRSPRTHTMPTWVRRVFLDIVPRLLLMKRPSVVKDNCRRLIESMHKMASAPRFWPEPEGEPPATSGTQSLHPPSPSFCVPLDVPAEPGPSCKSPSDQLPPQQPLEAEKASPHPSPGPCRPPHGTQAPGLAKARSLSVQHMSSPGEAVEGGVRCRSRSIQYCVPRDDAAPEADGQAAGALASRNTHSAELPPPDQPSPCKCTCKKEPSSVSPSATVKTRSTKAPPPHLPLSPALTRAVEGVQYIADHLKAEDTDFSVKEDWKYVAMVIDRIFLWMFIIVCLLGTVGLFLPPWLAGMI
Take `C[N+](C)(C)CCCCCC[N+](C)(C)C` [Hexamethoniumdibromide]: the Ki is over 10 µM. `C[N+]1(C)CCN(c2ccccc2)CC1` [DMPP] showed a Ki of 0.02 µM. To `C=CC[N+]12CCC34c5ccccc5N5C=C6C7CC8C9(CC[N+]8(CC=C)CC7=CCO)c7ccccc7N(C=C(C(CC31)C(=CCO)C2)C54)C69` (centres undefined) [NSC_5311001] belongs over 10 µM; to `CC(=O)OC1CC2CCC3C(CCC4(C)C3CC([N+]3(C)CCCCC3)C4OC(C)=O)C2(C)CC1[N+]1(C)CCCCC1` (centres undefined) [NSC_27350], over 10 µM. `CCN1CC2(COC(=O)c3ccccc3-n3c(O)cc(C)c3O)CCC(OC)C34C5CC6C(OC)CC(O)(C5C6OC)C(O)(C(OC)C23)C14` (centres undefined) [CAS_21019-30-7] registered a Ki of 2.8 µM.

Take `COc1cc2c3cc1Oc1cc(ccc1O)C[C@H]1c4c(cc(OC)c(O)c4Oc4ccc(cc4)C[C@@H]3N(C)CC2)CC[N+]1(C)C` [CAS_57-94-3]: the Ki is 2 µM.

Take `CC(=O)OC1CC2CCC3C(CCC4(C)C3CC([N+]3(C)CCCCC3)C4OC(C)=O)C2(C)CC1N1CCCCC1` (centres undefined) [CAS_39764]: the Ki was over 10 µM. Take `CC(=O)SCC[N+](C)(C)C` [ATC]: the affinity corresponds to a Ki of 0.17 µM. To `C[N+](C)(C)CCOC(N)=O` [(2-Hydroxyethyl)trimethyl ammonium chloride carbamate] belongs 0.15 µM. `CNC(=O)Oc1ccc2c(c1)C1(C)CCN(C)C1N2C` (centres undefined) [1,3a,8-trimethyl-1H,2H,3H,3aH,8H,8aH-pyrrolo[2,3-b]indol-5-yl N-methylcarbamate] returned a Ki of over 10 µM.

For `O=c1cccc2n1CC1CNCC2C1` (centres undefined) [CAS_485-35-8], the Ki was 0.00024 µM. As to `C[N+](C)(C)CCCCCCCCCC[N+](C)(C)C` [Decamethonium Iodide], the Ki was found to be 1.3 µM. For `C[N+](C)(C)CCOC(=O)CCC(=O)OCC[N+](C)(C)C` [2,2'-[(1,4-dioxobutane-1,4-diyl)bis(oxy)]bis(N,N,N-trimethylethanaminium)], the affinity, expressed as Ki, was 2.9 µM.

With `C[N+](C)(C)CCOC(=O)CCCCCCC(=O)OCC[N+](C)(C)C` [NSC_123990], the Ki was found to be 0.013 µM.
